In paper PMC12858405, “Ideal efficacy photoswitching for chromocontrol of TRPC4/5 channel functions in live tissues” (Nature Chemical Biology, 2026):

Target: T1, heteromeric TRPC4:TRPC1 (Homo sapiens, UniProt Q9UBN4)
T1 construct: expressed in transfected cells; host or cells: HEK293, transiently transfected
Assay: Whole-cell recordings, HEK293 co-expressing TRPC4 and TRPC1
Assay type: cell-based
Conditions: 30 nM
Text: Müller, Niemeyer, et al., Schaefer & Thorn-Seshold 2025: Ideal Efficacy Photoswitching of TRPC4/5 in Tissue 3.3 Activation of heteromeric TRPC4:TRPC1 and TRPC5:TRPC1
Supplementary Figure 15: Photoswitching of ionic currents through heteromeric TRPC4:TRPC1 and TRPC5:TRPC1 channel complexes. Whole cell recordings from HEK293 cells that were transiently transfected to express the indicated TRPC isoforms were obtained in the whole cell mode with a voltage and photoswitching paradigm as illustrated in (A). (B-D) Superimposed recordings of 20 consecutive sweeps are shown for cells that ony express TRPC4 or TRPC5 (left), and for cells that co-express the respective TRPC channel along with TRPC1 (right). Note the characteristic change of the current-voltage relationship with smaller inward currents and stronger outward rectification in cells that co-express TRPC1. […]
or 10 nM (all other panels). The data shown are representative for 4-12 patched cells, each.
Currents through heteromeric complexes that are composed of TRPC4:TRPC1 or TRPC5:TRPC1 subunits can be unequivocally recognized on the basis of their unique biophysical properties with smaller unitary and global inward current amplitudes and a marked outward rectification.44 We show […]
also the heteromeric complexes TRPC5:TRPC1 and TRPC4:TRPC1 that are formed upon co-expression with TRPC1 (Supplementary Fig. 15). […]

T1 sequence (Q9UBN4 whole entry): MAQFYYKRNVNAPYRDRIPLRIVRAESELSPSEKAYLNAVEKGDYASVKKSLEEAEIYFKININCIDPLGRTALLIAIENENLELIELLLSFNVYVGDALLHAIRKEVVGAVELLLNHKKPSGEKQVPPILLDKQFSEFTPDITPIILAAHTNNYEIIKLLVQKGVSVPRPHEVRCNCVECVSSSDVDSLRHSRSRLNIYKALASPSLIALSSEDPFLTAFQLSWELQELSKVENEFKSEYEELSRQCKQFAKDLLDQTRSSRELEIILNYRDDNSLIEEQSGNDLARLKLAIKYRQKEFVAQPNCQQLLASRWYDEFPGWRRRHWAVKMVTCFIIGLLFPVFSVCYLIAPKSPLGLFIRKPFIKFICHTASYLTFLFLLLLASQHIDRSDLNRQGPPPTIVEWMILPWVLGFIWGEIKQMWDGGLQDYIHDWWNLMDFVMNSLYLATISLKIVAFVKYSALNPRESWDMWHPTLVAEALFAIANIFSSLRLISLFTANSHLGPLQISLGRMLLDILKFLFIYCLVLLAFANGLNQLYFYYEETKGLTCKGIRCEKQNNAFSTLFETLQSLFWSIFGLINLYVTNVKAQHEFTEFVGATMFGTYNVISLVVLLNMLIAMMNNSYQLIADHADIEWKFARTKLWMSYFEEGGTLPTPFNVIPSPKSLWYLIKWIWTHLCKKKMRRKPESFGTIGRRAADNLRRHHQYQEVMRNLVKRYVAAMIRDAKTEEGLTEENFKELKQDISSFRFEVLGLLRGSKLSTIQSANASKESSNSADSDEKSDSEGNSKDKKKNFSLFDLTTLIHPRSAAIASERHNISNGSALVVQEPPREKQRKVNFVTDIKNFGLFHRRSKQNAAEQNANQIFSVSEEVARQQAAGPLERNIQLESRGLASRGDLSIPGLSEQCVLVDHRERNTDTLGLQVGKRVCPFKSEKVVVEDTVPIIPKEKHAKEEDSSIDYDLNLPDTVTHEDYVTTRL
T1 sequence (P48995 whole entry partner): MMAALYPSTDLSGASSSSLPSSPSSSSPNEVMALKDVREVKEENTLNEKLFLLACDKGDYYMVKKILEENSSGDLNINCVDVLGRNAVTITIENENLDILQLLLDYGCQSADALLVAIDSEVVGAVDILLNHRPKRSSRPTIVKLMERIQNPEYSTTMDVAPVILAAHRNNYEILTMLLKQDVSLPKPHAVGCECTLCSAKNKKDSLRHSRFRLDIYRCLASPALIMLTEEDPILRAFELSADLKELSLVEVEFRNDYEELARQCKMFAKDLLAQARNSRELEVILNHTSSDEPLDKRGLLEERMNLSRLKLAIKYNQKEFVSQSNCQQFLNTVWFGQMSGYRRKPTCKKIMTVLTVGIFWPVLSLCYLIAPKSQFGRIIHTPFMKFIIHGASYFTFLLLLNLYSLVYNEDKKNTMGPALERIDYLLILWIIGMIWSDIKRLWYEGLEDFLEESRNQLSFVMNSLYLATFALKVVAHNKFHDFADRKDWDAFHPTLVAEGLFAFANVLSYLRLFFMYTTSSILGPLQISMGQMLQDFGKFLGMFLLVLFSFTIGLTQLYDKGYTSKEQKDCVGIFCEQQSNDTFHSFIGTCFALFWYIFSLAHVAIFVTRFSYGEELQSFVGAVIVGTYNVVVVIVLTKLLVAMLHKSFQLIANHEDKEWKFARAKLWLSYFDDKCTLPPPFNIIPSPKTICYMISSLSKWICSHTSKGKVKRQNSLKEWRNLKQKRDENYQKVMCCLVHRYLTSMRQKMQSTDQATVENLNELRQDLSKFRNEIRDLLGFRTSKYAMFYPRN

Compound	Chromocontrol over heteromeric TRPC4:TRPC1 currents versus homomeric channels
Cn1c(=O)n(CCCO)c(=O)c2c1nc(Oc1ccc(N=Nc3ccccc3)c(OC(F)(F)F)c1)n2Cc1ccc(Cl)cc1 [AzPico]	comparable chromocontrol
Cn1c(=O)n(CCCO)c(=O)c2c1nc(Oc1ccc(N=Nc3ccccc3)c(Cl)c1)n2Cc1ccc(Cl)cc1 [AzHC]	comparable chromocontrol
